Patent publication US7585885B2, “Pyrrolidine derivatives useful as BACE inhibitors” (Eli Lilly and Company, priority 2004, dated 2009)
Counter-ions that a name gives are not always drawn.

Columns and labels:
[1] = target: T1, human BACE1 (1-460):Fc (Homo sapiens, UniProt P56817); experiment: BACE1 mcaFRET Assay; assay type: biochemical; conditions: FRET substrate 15 micromolar, pH 4.6, room temperature 16 to 24 hours
T1 construct: made in house; host or cells: HEK293 (transient transfection, purified from conditioned media on Protein A-agarose)
Method: (§1) For in vitro enzymatic and cellular assays, test compounds are prepared in DMSO to make up a 10 millimolar stock solution. The stock solution is serially diluted (in a 1:3, 1:2.5, 1:2, or 1:1 dilution series) in DMSO to obtain a final compound concentration of 10 millimolar to 1 micromolar at the first highest concentration of a ten-point dilution curve in a 96-well round-bottom plate right before conducting the in vitro enzymatic and whole assays.
Serial dilutions of test compounds are prepared as described above. Two microliter of each dilution is added to each well on row A to H of a corresponding low protein binding black plate to which 50 microliter of 50 millimolar ammonium acetate, pH 4.6, 1 mM Triton X-100, 1 mg/ml Bovine Serum Albumin, and 15 micromolar of FRET substrate (sequence: (MCA)-S-E-V-N-L-D-A-E-F-R-K(Dnp)-R-R-R-R-NH2) for BACE1 activity are pre-added. The content is mixed well on a plate shaker for 10 min. Fifty microliter of two hundred picomolar human BACE1 (1-460):Fc (See: Vasser, et al., Science, 286, 735-741 (1999)) in the same reaction buffer described above is added to the plate containing substrate and test compounds to initiate the reaction. The relative fluorescence unit (RFU) of the mixture at time 0 is recorded at excitation wavelength 330 nm and emission wavelength 400 nm, after brief mixing on a plate shaker. The reaction plate is covered with aluminum foil and kept in a dark humidified oven at room temperature for 16 to 24 hours. The RFU at the end of incubation is recorded with the same excitation and emission setting. The difference of the RFU at time 0 and the end of incubation represents the activity of BACE1 under the compound treatment. The 10-point inhibition curve was plotted and fitted with the four-parameter logistic equation to obtain the EC50 and IC50 values. (See: Sinha, et al., Nature, 402, 537-540 (2000)). […] Data for selected compounds of the invention tested in this assay are contained in the following table.
Both human (accession number: AF190725) and murine (accession number: NM_011792) BACE1 were cloned from total brain cDNA by […]. The nucleotide sequences corresponding to amino acid sequences #1 to 460 were inserted into the cDNA encoding human IgG1 (Fc) polypeptide (Vassar et al. 1999). This fusion protein of BACE1 (1-460) and human Fc, named huBACE1:Fc, was constructed into the pJB02 vector. Human BACE1(1-460):Fc (huBACE1:Fc) and murine BACE1(1-460):Fc (muBACE1:Fc) were transiently expressed in HEK293 cells. 250 μg cDNA of each construct was mixed with Fugene 6 and added to 1 liter HEK293 cells. Four days after the transfection, conditioned media were harvested for purification.
Conditioned media of HEK293 cell transiently transfected with huBACE1:Fc or muBACE1:Fc cDNA were collected. Cell debris was removed by filtering the conditioned media through 0.22 μm sterile filter. 5 ml Protein A-agarose (bed volume) was added to 4 liter conditioned media. This mixture was gently stirred overnight at 4° C. The Protein A-agarose resin was collected and packed into a low-pressure chromatography column. The column washed with 20× bed volumes of PBS at flow rate 20 ml per hour. Bound huBACE1:Fc or muBACE1:Fc protein was eluted with 50 mM acetic acid, pH 3.6, at flow rate 20 ml per hour. 1 ml fractions of eluate were neutralized immediately with 0.5 ml 200 mM ammonium acetate, pH 6.5. The purity of final product was assessed by electrophoresis in 4-20% Tris-Glycine SDS-PAGE. The enzyme was stored at −80 C in small aliquots.

[2] = target: T2, beta-secretase activity (Homo sapiens, UniProt P56817); experiment: Whole cell assay for measuring the inhibition of beta-secretase activity; assay type: cell-based; conditions: HEK293/APP751sw or HEK293/APP751wt cells, 37 C for 4 to 6 hours, sandwich ELISA of conditioned media; read-out: IC50 (Abeta, sAPPbeta-lowering effect)
T2 construct: endogenous in cells; host or cells: HEK293p (ATCC CRL-1573) stably expressing human APP751sw or APP751wt
Method: as §1
The routine whole cell assay for the measurement of inhibition of beta-secretase activity utilizes the human embryonic kidney cell line HEK293p (ATCC Accession No. CRL-1573) stably expressing a human APP751 cDNA containing the naturally occurring double mutation […] to Asn651Leu652, commonly called the Swedish mutation (noted HEK293/APP751sw) and shown to overproduce Abeta (Citron et al., 1992, Nature 360:672-674). Human embryonic kidney HEK293p cells stably expressing wild-type human APP751 cDNA (noted HEK293/APP751 wt) are also used to assess the inhibition of beta-secretase activity. In vitro Aβ reduction assays have been described in the literature (See: Dovey, et al., Journal of Neurochemistry, 76, 173-181 (2001); Seubert, et al., Nature, 361, 260 (1993); and Johnson-Wood, et al., Proc. Natl. Acad. Sci. USA, 94, 1550-1555 (1997))
Cells (HEK293/APP751sw or HEK293/APP751wt, at 3×10^4 cells/well, containing 200 microliters culture media, DMEM containing 10% FBS) are incubated at 37 C for 4 to 6 hours in the presence/absence of inhibitors (diluted in DMSO) at the desired concentration. At the end of the incubation, conditioned media are analyzed for beta-secretase activity, for example, by analysis of cleavage fragments, Abeta peptide and sAPPbeta. Abeta peptides are measured by a sandwich ELISA, using monoclonal 266 as a capture antibody and biotinylated 3D6 as reporting antibody. The sAPPbeta fragments are analyzed by a sandwich ELISA, using monoclonal 8E5 antibody as a capture antibody and rabbit polyclonal 192sw or 192wt as a reporting antibody. Note that sAPPbeta is the cleavage product of full length APP by BACE1. The concentration of sAPPbeta released in the conditioned media following the compound treatment corresponds to the activity of BACE1 under such conditions. The 10-point inhibition curve was plotted and fitted with the four-parameter logistic equation to obtain the EC50 and IC50 values for the Abeta, sAPPbeta-lowering effect. Data for selected compounds of the invention tested in this assay are contained in the following table.

T1 sequence (P56817 22-460): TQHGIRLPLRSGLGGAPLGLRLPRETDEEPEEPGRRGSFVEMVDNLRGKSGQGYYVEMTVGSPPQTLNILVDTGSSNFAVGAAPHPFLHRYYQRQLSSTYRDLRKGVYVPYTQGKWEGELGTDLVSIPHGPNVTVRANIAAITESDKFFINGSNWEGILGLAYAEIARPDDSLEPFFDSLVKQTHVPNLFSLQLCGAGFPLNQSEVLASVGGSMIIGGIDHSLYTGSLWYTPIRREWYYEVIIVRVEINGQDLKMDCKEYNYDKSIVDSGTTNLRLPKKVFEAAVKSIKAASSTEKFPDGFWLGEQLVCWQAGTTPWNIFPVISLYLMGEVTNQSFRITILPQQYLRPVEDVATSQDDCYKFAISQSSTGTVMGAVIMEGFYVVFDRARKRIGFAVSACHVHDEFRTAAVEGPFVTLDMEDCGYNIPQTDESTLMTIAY
T2 sequence (P56817 46-501): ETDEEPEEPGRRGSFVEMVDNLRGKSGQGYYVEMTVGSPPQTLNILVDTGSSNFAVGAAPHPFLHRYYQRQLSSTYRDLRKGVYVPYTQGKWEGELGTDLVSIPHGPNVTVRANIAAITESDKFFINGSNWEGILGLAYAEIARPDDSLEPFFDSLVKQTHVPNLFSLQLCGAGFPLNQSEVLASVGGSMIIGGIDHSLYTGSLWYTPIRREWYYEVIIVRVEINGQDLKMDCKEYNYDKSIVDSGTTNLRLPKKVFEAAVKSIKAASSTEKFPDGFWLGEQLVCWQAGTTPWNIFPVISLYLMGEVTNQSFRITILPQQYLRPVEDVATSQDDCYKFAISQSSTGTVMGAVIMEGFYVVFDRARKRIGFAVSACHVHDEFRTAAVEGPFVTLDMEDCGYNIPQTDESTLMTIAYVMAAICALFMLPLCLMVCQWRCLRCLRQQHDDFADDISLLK

`CC(=O)N[C@@H](Cc1cc(F)cc(F)c1)[C@H](O)[C@H]1C[C@@H](CC(=O)N2CCCCC2)CN1` [Example 33, N-{(1S,2R)-1-(3,5-Difluoro-benzyl)-2-hydroxy-2-[(2R,4S)-4-(2-oxo-2-piperidin-1-yl-ethyl)-pyrrolidin-2-yl]-ethyl}-acetamide hydrochloride] was tested. Which IC50 [1] did it give?
The IC50 was 820 nM.

What about the IC50 [2] of the same compound?
Its IC50 is 14300 nM.

Which IC50 [1] does the source give for `CC(=O)N[C@@H](Cc1cc(F)cc(F)c1)[C@H](O)[C@H]1C[C@@H](CC(=O)N2CCOCC2)CN1` [Example 35, N-{(1S,2R)-1-(3,5-Difluoro-benzyl)-2-hydroxy-2-[(2R,4S)-4-(2-morpholin-4-yl-2-oxo-ethyl)-pyrrolidin-2-yl]-ethyl}-acetamide hydrochloride] here?
The IC50 was 1400 nM.

For `CCC(C)Nc1cc(C(=O)NC(Cc2ccccc2)C(O)C2CCCN2)cc(N(C)S(C)(=O)=O)n1` [Example 12, N-((1S,2R)-1-Benzyl-2-hydroxy-2-(R)-pyrrolidin-2-ylethyl)-2-(S)-sec-butylamino-6-(methanesulfonyl-methylamino)-isonicotinamide hydrochloride], which IC50 [1] is on record?
The IC50 was 1.8 nM.

What about the IC50 [2] of the same compound?
Its IC50 is 15 nM.

Which IC50 [1] does the source give for `CC(=O)N[C@@H](Cc1cc(F)cc(F)c1)[C@H](O)[C@H]1C[C@@H](CC(=O)N(C)C)CN1` [Example 37, 2-{(3S,5R)-5-[(1R,2S)-2-Acetylamino-3-(3,5-difluoro-phenyl)-1-hydroxy-propyl]-pyrrolidin-3-yl}-N,N-dimethyl-acetamide hydrochloride] here?
The IC50 was 5200 nM.

What does the source list for `CCC(C)Nc1cc(C(=O)NC(Cc2ccccc2)C(O)C2CC(F)CN2)cc(N(C)S(C)(=O)=O)n1` [Example 7, N-[1-(S)-Benzyl-2-(R)-(4-(S)-fluoropyrrolidin-2-yl)-2-(R)-hydroxyethyl]-2-(S)-sec-butylamino-6-(methanesulfonyl-methylamino)-isonicotinamide bishydrochloride]?
IC50 [1]: 3.9 nM; IC50 [2]: 13 nM

What does the source list for `CC(=O)N[C@@H](Cc1cc(F)cc(F)c1)[C@H](O)[C@H]1C[C@@H](CC(=O)N2CCCCCC2)CN1` [Example 41, N-[(1S,2R)-2-[(2R,4S)-4-(2-Azepan-1-yl-2-oxo-ethyl)-pyrrolidin-2-yl]-1-(3,5-difluoro-benzyl)-2-hydroxy-ethyl]-acetamide hydrochloride]?
IC50 [1]: 380 nM; IC50 [2]: 6070 nM

`CC(=O)N[C@@H](Cc1cc(F)cc(F)c1)[C@H](O)[C@H]1C[C@@H](OCCC2CCCCC2)CN1` [Example 60, N-[(1S,2R)-2-[(2R,4R)-4-(2-Cyclohexyl-ethoxy)-pyrrolidin-2-yl]-1-(3,5-difluoro-benzyl)-2-hydroxy-ethyl]-acetamide hydrochloride] was tested. Which IC50 [1] did it give?
The IC50 was 2300 nM.
